Patent publication US20100249234A1, “METHODS OF REDUCING VIRULENCE IN BACTERIA” (UWM RESEARCH FOUNDATION, INC., priority 2007, published 2010)

Experiments:
Assay type in all cases: cell-based, Dickeya dadantii 3937 (Ech3937)
[1] = test system: rsmB mRNA; test: qRT-PCR relative mRNA level of rsmB
Experimental: (§1) Bacterial strains were grown in MM. Total RNA from the bacterial cells was isolated by using the TRI reagent method (Sigma, Mo.) and treated with Turbo DNA-free DNase kits (Ambion, TX) as described (Peng et al., 2006). An iScript cDNA Synthesis Kit (Bio-Rad, CA) was used to synthesize cDNA from 0.5 μg of treated total RNA. The Real Master Mix (Eppendorf, Westbury, N.Y.) was used for qRT-PCR reaction to quantify the cDNA level of target genes in different samples. The rplU was used as the endogenous control for data analysis. qRT-PCR data were analyzed using Relative Expression Software Tool as described (Pfaffl, M. W., Horgan, G. W., and Dempfle, L. (2002) Relative expression software tool (REST) for group-wise comparison and statistical analysis of relative expression results in real-time PCR. Nucleic Acids Res 30:e36.).

[2] = test system: dspE mRNA; test: qRT-PCR relative mRNA level of dspE
Experimental: as §1

[3] = test system: Ech3937; test: Growth of Ech3937 in MM supplemented with compound
Source text: Phenolic compounds constitute an important class of organic substances produced by plants. The phenolic compound SA is a signaling molecule that plays a role in host defenses. OCA and TCA are the biosynthetic precursors of SA and are also reported to induce the expression of defense-related genes in plants. OCA, TCA, and SA were examined to elucidate their effects on the expression of T3SS genes. The expression of the T3SS gene hrpN was examined in MM and MM supplemented with OCA, TCA, and SA, at concentrations of 0.05, 0.1, and 0.2 mM, respectively. FIGS. 2A and 2B show the promoter activities of hrpN in Dickeya dadantii 3937 (Ech3937) grown in MM and MM supplemented with 0.05, 0.1, and 0.2 mM OCA, TCA, and SA at 12 h (FIG. 2A) and 24 h (FIG. 2B) post-inoculation. GFP intensity was determined on gated populations of bacterial cells by flow cytometry and analyzed with the Cell Quest software (BD Biosciences, San Jose, Calif.). The growth of Ech3937 in MM supplemented with different concentrations of OCA, TCA and SA was recorded. Compared with MM alone, the average GFP fluorescence intensity of bacterial cells of Ech3937 (phrpN) was increased approximately 4-fold when 0.05 mM of OCA and TCA were added to the medium (FIGS. 2A, 2B).
The expression of the T3SS gene hrpA was further examined in MM and MM supplemented with PCA at concentrations of 0.001, 0.005, 0.01, 0.05 and 0.1 mM respectively. FIGS. 16A and 16B show the promoter activities of hrpA in Dickeya dadantii 3937 (Ech3937) grown in minimum medium (MM) and MM supplemented with different amount of p-coumaric acid (PCA) at 12 h (FIG. 16A) and 24 h (FIG. 16B) post-inoculation. GFP intensity was determined on gated populations of bacterial cells by flow cytometry and analyzed with the Cell Quest software (BD Biosciences, San Jose, Calif.). The growth of Ech3937 in MM supplemented with different concentrations of PCA was recorded. Compared with MM alone, the average GFP fluorescence intensity of bacterial cells of Ech3937 (phrpA) was reduced more than 4-fold when 0.05 and 0.1 mM of PCA were added to the medium (FIGS. 16A, 16B).

[4] = test system: hrpL mRNA; test: qRT-PCR relative mRNA level of hrpL
Experimental: as §1

[5] = test system: mrp promoter; test: mrp (reference gene) promoter activity, GFP reporter pmrp, flow cytometry (FACS); details: for GFP intensity (Mean Fluorescence Intensity) of Ech3937 (pmrp): reference gene
Experimental: (§2) FACS analysis of promoter activity of dspE, hrpA, hrpL, hrpN, and hrpS was carried out as described (Peng et al., 2006). Briefly, the wild-type Ech3937 and the mutant strains carrying the promoter reporter plasmid were grown on LB broth at 28° C. overnight and transferred to appropriate media. For FACS analysis, samples were collected by centrifugation, washed with 1× phosphate buffer saline (PBS) at 13,000 rpm for 1 min, and re-suspended in 1×PBS to ca 10^6 CFU/ml prior to being run in a FACS Calibur flow cytometer (BD Biosciences, CA). Three replicates were performed for each treatment.
(§3) Since OCA and TCA induced the expression of hrpN, the effect of these two phenolic compounds on the expression of hrpA, hrpL, and hrpS was investigated further. […] GFP intensity was determined on gated populations of bacterial cells by flow cytometry and analyzed with the Cell Quest software (BD Biosciences, San Jose, Calif.). The lines labeled “1” stand for the GFP expression control base level of the Ech3937 containing pPROBE-AT vector; lines labeled “2” stand for the promoter activity of hrpS, hrpL, hrpA and hrpN in Ech3937 in MM; lines labeled “3” stand for the promoter activity of Ech3937 in MM supplemented with 0.1 mM OCA; lines labeled “4” stand for the promoter activity of hrpL mutant WPP96 in MM; lines labeled “5” stand for the promoter activity of hrpL mutant WPP96 in MM supplemented with 0.1 mM OCA. Values are representative of at least two experiments. […] Compared with MM alone, the average GFP fluorescence intensity of bacterial cells of Ech3937 (phrpA) was doubled when 0.1 mM of OCA and TCA were added to the medium (Table 4; FIG. 3). […] The mrp, whose protein product has an ATPase conserved domain (2e-06), was used as a reference gene in this study.

[6] = test system: hrpS promoter; test: hrpS promoter activity, GFP reporter plasmid phrpS, flow cytometry (FACS)
Experimental: as §2, §3

[7] = test system: hrpA mRNA; test: qRT-PCR relative mRNA level of hrpA
Experimental: as §1

[8] = test system: hrpL promoter; test: hrpL promoter activity, GFP reporter plasmid phrpL, flow cytometry (FACS)
Experimental: as §2, §3

[9] = test system: pPROBE-AT vector; test: GFP expression control base level, pPROBE-AT vector, flow cytometry (FACS)
Experimental: as §2, §3

[10] = MM + 0.1 mM PCA, 12 h (Table 10)
[11] = MM + 0.1 mM PCA, 24 h (Table 10)
[12] = MM + 0.1 mM PCA (MMPCA), 12 h (Table 10)
[13] = MM + 0.1 mM PCA (MMPCA), 24 h (Table 10)
[14] = MM supplemented with 0.1 mM OCA (FIG. 4)
[15] = MM + 0.1 mM compound, 12 h (Table 4)
[16] = hrpL mutant WPP96, MM + 0.1 mM compound, 12 h (Table 4)

## O=C(O)/C=C/c1ccc(O)cc1 [PCA, p-coumaric acid]
[1]; MM supplemented with PCA, p=0.928 (FIG. 14)
  rsmB gene expression, MM vs supplemented MM (qRT-PCR): No significant difference
[2]; 0.1 mM PCA, P=0.001 (FIG. 14)
  dspE mRNA compared with MM alone (normalized to 1), qRT-PCR: significantly lower amount of mRNA
[3]; PCA 0.001 to 0.1 mM in MM (FIGS. 16A, 16B)
  bacterial growth of Ech3937 in MM with PCA: Inhibition of bacterial growth was not observed
[4]; MM supplemented with PCA vs MM alone (normalized to 1), P=0.001
  hrpL mRNA relative expression ratio: 0.039
[5]; [10]
  GFP intensity (Mean Fluorescence Intensity) of Ech3937 (pmrp): 124.1 ± 2.7
[5]; [11]
  GFP intensity (Mean Fluorescence Intensity) of Ech3937 (pmrp): 98.9 ± 1.0
[6]; [12]
  GFP intensity (Mean Fluorescence Intensity) of Ech3937 (phrpS): 37.9 ± 1.3
[6]; [13]
  GFP intensity (Mean Fluorescence Intensity) of Ech3937 (phrpS): 43.6 ± 2.6
[7]; 0.1 mM PCA, P=0.001 (FIG. 14)
  hrpA mRNA compared with MM alone (normalized to 1), qRT-PCR: significantly lower amount of mRNA
[8]; [12]
  GFP intensity (Mean Fluorescence Intensity) of Ech3937 (phrpL): 7.8 ± 0.1
[8]; [13]
  GFP intensity (Mean Fluorescence Intensity) of Ech3937 (phrpL): 11.1 ± 3.3
[9]; [10]
  GFP intensity (Mean Fluorescence Intensity) of Ech3937 (pPROBE-AT): 2.2 ± 0.2
[9]; MM + 0.1 mM PCA, 12 h (Table 11)
  GFP intensity (Mean Fluorescence Intensity) of Ech3937 (pPROBE-AT): 2.3 ± 0.1
[9]; [11]
  GFP intensity (Mean Fluorescence Intensity) of Ech3937 (pPROBE-AT): 14.0 ± 10.1
[9]; MM + 0.1 mM PCA, 24 h (Table 11)
  GFP intensity (Mean Fluorescence Intensity) of Ech3937 (pPROBE-AT): 4.9 ± 0.1

## O=C(O)/C=C/c1ccccc1O [OCA, o-coumaric acid]
[1]; Ech3937 in supplemented MM vs MM alone (normalized to 1)
  rsmB mRNA relative expression ratio: 1.4
[2]; [14]
  dspE mRNA compared with MM alone (qRT-PCR): significantly higher amount
[3]; 0.05, 0.1 and 0.2 mM in MM (FIGS. 2A, 2B)
  bacterial growth of Ech3937 in supplemented MM: No reduction of bacterial growth
[4]; 0.1 mM OCA, 12 h of growth, P<0.01
  hrpL mRNA compared with MM alone (qRT-PCR): about 3 fold
[5]; MM + 0.1 mM compound, 12 h
  mrp expression in Ech3937 (pmrp) compared with MM: slightly higher mrp expression
[5]; [15]
  GFP intensity (Mean Fluorescence Intensity) of Ech3937 (pmrp): 97.7 ± 1.6
[6]; MM + 0.1 mM compound, 12 h
  GFP intensity of Ech3937 (phrpS) compared with MM alone: slightly lower GFP intensity
[6]; [15]
  GFP intensity (Mean Fluorescence Intensity) of Ech3937 (phrpS): 56 ± 1
[6]; [16]
  GFP intensity (Mean Fluorescence Intensity) of WPP96 (phrpS): 350 ± 17
[7]; [14]
  hrpA mRNA compared with MM alone (qRT-PCR): significantly higher amount
[8]; Ech3937, MM + 0.1 mM compound, 12 h
  promoter activity of hrpL compared with MM alone: slightly higher promoter activity
[8]; [15]
  GFP intensity (Mean Fluorescence Intensity) of Ech3937 (phrpL): 19 ± 0
[8]; [16]
  GFP intensity (Mean Fluorescence Intensity) of WPP96 (phrpL): 313 ± 29
[9]; MM + 0.1 mM OCA, 6 h
  GFP intensity (Mean Fluorescence Intensity) of Ech3937 (pPROBE-AT): 2.0 ± 0
[9]; MM + 0.1 mM OCA, 12 h
  GFP intensity (Mean Fluorescence Intensity) of Ech3937 (pPROBE-AT): 2.0 ± 0
[9]; MM + 0.1 mM OCA, 24 h
  GFP intensity (Mean Fluorescence Intensity) of Ech3937 (pPROBE-AT): 1.9 ± 0
[9]; [15]
  GFP intensity (Mean Fluorescence Intensity) of Ech3937 (pPROBE-AT): 2.0 ± 0
